Results as given in patent publication US20210017607A1, “Methods of Predicting Responsiveness to Cancer Therapies” (The University of Chicago, priority 2019, published 2021).
Square brackets hold non-standard residues; d marks the D form. Peptide text beside a SMILES is read from it. * marks the point of attachment. dPhe(4-NHCONH2) = NC(=O)Nc1ccc(C[C@@H](N)C(=O)O)cc1; Dihydroorotyl(S) = O=C1C[C@@H](C(=O)*)NC(=O)N1; dPhe(4-Cl) = N[C@H](Cc1ccc(Cl)cc1)C(=O)O; Phe(4-NH2) = Nc1ccc(C[C@H](N)C(=O)O)cc1; d2Nal = N[C@H](Cc1ccc2ccccc2c1)C(=O)O; Lys(iPr) = CC(C)NCCCC[C@H](N)C(=O)O; d3Pal = N[C@H](Cc1cccnc1)C(=O)O

Tests used:
[1] = test system: Myc-CAP (STING^lo) tumors; assay: Immune profiling of Myc-CAP tumors (flow cytometry, qRT-PCR); assay type: in vivo, mouse; details: degarelix for 10 days
Experimental: FIGS. 24A-24G. […] Myc-CAP (STING^lo) tumor-bearing syngeneic mice were treated with degarelix (chemical castration) for 10 days. At the end of treatment, tumors were harvested and analyzed by flow cytometry for infiltration of CD45+ immune cells (24A), macrophages (24B) and CD4/CD8 T cells (24C-24D). Mean fluorescence intensity (MFI) is depicted for PD-Ll expression on CD45−/CD45+ cells (24E-24F) and TAMs (24G) within the TME; n=3-5 animals/group; Significance/p-values were calculated by Un-paired t-test.
FIGS. 26A-26D. […] (26C-26D) Single-cell suspensions were generated from harvested tumors and analyzed by flow cytometry for the indicated immune cell populations and their activation states. […] Significance/p-values were calculated by […].
FIGS. 27A-27D. […] Single-cell suspensions were generated from harvested tumors and analyzed by flow cytometry for CD4 infiltration (27A) and activation (27C). (27B, 27D) Single-cell suspensions were generated from harvested tumors and analyzed by flow cytometry for the indicated immune cell populations and their activation states. […] Significance/p-values were calculated by one-way ANOVA.
FIGS. 28A and 28B. […] (28B) Single-cell suspensions were generated from harvested tumors and analyzed by flow cytometry for macrophage (F4/80+) Arginase I expression. n=3 animals/group; Significance/p-values were calculated by one-way ANOVA. […]

[2] = test system: Myc-CAP (STING^lo) tumors; assay: Myc-CAP syngeneic tumor growth; assay type: in vivo, mouse; details: immunocompetent syngeneic mice
Experimental: FIGS. 25A and 25B. […] (25A-25B) Myc-CAP (STING^lo) tumor-bearing syngeneic mice were treated with the indicated drug(s) until untreated tumors reached approx. 2500 mm^3. Tumor volume curves for duration of treatment are shown.
FIGS. 26A-26D. […] Immunodeficient athymic nude (26A) and NOD-SCID (26B) mice were engrafted with Myc-CAP (STING^lo) tumors and treated with the indicated drug(s) until untreated tumors reached approx. 2000 mm^3. Tumor volume curves for duration of treatment are shown. For 26A-26B, n=3-4 mice per group. (26C-26D) Single-cell suspensions were generated from harvested tumors and analyzed by flow cytometry for the indicated immune cell populations and their activation states. Data are represented relative to CD45+ immune cells. For 26C-26D, n=3-5 animals per treatment group from 2 independent experiments. Significance/p-values were calculated by […].
FIGS. 29A-29M. […] Myc-CAP cancer cells were treated with the indicated drugs singly or in combination for 36 hours. (29A) Cells were stained with anti-mouse specific p-γH2AX antibody and a fluorescently labeled secondary antibody for determination of DNA DSBs, which were quantified by confocal microscopy. (29B) Protein extracts from cells in 29A were analyzed for the indicated pharmacodynamic biomarkers by western blotting; (29C) Annexin V-PI staining was done to assess frequency of live cells (Annexin V^− PI^−) following drug treatment. (29D) Ultracentrifugation was utilized to purify microvesicles (MVs) from supernatants in treatment groups in (29A) and associated DNA DSBs was quantified by Nanodrop®. Independent experiments n=2. (29E) Ultracentrifugation was utilized to purify MVs from supernatants in indicated treatment groups in FIG. 17A, and associated DNA DSBs were quantified by Nanodrop®; n=2 independent experiments. (29F) Syngeneic mice were engrafted with Myc-CAP (STING^lo) cells, and tumors were harvested when the tumor volume reached 400 mm^3. Single cell suspensions of the tumors were treated with the indicated drug(s), in the presence or absence of GW4869 (MV biogenesis inhibitor). (29G) Bone marrow derived macrophage (BMDMs) were co-cultured for 30 hours with supernatants (−/+ exogenous 50 units of DNase I pre-treatment for 30 minutes) from Myc-CAP cells that were treated with the indicated drug(s) for 36 hours. (29H) cGAMP (10 μg/mL) was pre-incubated with 10 units of DNAse I or mock control for 30 minutes and then added to BMDMs for 30 hours. (29I-29L) STING^+/+/STING^−/− BMDMs were co-cultured for 36 hours with supernatants from Myc-CAP and B6-Myc cancer cells that were treated with the indicated drug(s) for 36 hours. Supernatants were collected from 29F-29L at the end of treatment and analyzed for IFNβ1 by ELISA. (29M) Myc-CAP (STING^lo) tumor-bearing mice were treated with the indicated drug(s) until tumors first reached approx. 2500 mm^3. For the degerelix/rucaparib/buparlisib combination, additional cohorts of mice underwent concomitant treatment with STING antagonist H-151 or GW4869. Tumor volume was recorded daily for duration of experiment. For in vitro experiments, n=2 independent experiments and for in vivo experiments n=3-4 animals /group.

CC(=O)N[C@H](Cc1ccc2ccccc2c1)C(=O)N[C@H](Cc1ccc(Cl)cc1)C(=O)N[C@H](Cc1cccnc1)C(=O)N[C@@H](CO)C(=O)N[C@@H](Cc1ccc(NC(=O)[C@@H]2CC(=O)NC(=O)N2)cc1)C(=O)N[C@H](Cc1ccc(NC(N)=O)cc1)C(=O)N[C@@H](CC(C)C)C(=O)N[C@@H](CCCCNC(C)C)C(=O)N1CCC[C@H]1C(=O)N[C@H](C)C(N)=O [degarelix] (Ac-[d2Nal][dPhe(4-Cl)][d3Pal]S[Phe(4-NH2)](Dihydroorotyl(S))[dPhe(4-NHCONH2)]L[Lys(iPr)]P[dA]-NH2)
immune infiltration and PD-L1 expression within the TME after chemical castration [1]: increases macrophage and CD4+ T cell infiltration and PD-L1 expression | tumor growth response [2]: not observed
